# Data reported in PubChem BioAssay (NCI).
#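 Values below derive from 48-hour exposures of cells grown in 96-well plates, with endpoints linearly interpolated between the two concentrations bracketing the appropriate inhibition level. TGI marks complete inhibition of growth.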
# Key:
# Test in all cases: NCI anticancer screen, dose series, 48 h
# NCI-H226 lung = test system: NCI-H226 lung
# DMS 273 small cell lung = test system: DMS 273 small cell lung
# A498 renal = test system: A498 renal
# KM20L2 colon = test system: KM20L2 colon
# HL-60(TB) leukemia = test system: HL-60(TB) leukemia
# OVCAR-8 ovarian = test system: OVCAR-8 ovarian
# 786-0 renal = test system: 786-0 renal
# HCC-2998 colon = test system: HCC-2998 colon
# OVCAR-5 ovarian = test system: OVCAR-5 ovarian
# HOP-62 NSCLC = test system: HOP-62 NSCLC
# TK-10 renal = test system: TK-10 renal
# SW-620 colon = test system: SW-620 colon
# XF 498 CNS = test system: XF 498 CNS
# SNB-75 CNS = test system: SNB-75 CNS
# SF-539 CNS = test system: SF-539 CNS
# UACC-257 melanoma = test system: UACC-257 melanoma
# SK-OV-3 ovarian = test system: SK-OV-3 ovarian
# SK-MEL-2 melanoma = test system: SK-MEL-2 melanoma
# M19-MEL melanoma = test system: M19-MEL melanoma
# EKVX NSCLC = test system: EKVX NSCLC
# NCI-H522 lung = test system: NCI-H522 lung
# UACC-62 melanoma = test system: UACC-62 melanoma
# ACHN renal = test system: ACHN renal
# LXFL 529 NSCLC = test system: LXFL 529 NSCLC
# HT29 colon = test system: HT29 colon
# SNB-78 CNS = test system: SNB-78 CNS
# RXF 393 renal = test system: RXF 393 renal
# DMS 114 small cell lung = test system: DMS 114 small cell lung
# NCI-H23 lung = test system: NCI-H23 lung
# RPMI-8226 leukemia = test system: RPMI-8226 leukemia
# SNB-19 CNS = test system: SNB-19 CNS
# MALME-3M melanoma = test system: MALME-3M melanoma
# HCT-15 colon = test system: HCT-15 colon
# SF-268 CNS = test system: SF-268 CNS
# SK-MEL-5 melanoma = test system: SK-MEL-5 melanoma
# M14 melanoma = test system: M14 melanoma
# SK-MEL-28 melanoma = test system: SK-MEL-28 melanoma
# UO-31 renal = test system: UO-31 renal
# COLO 205 colon = test system: COLO 205 colon
# K-562 leukemia = test system: K-562 leukemia
# SN12C renal = test system: SN12C renal
# OVCAR-4 ovarian = test system: OVCAR-4 ovarian
# RXF-631 renal = test system: RXF-631 renal
# IGROV1 ovarian = test system: IGROV1 ovarian
# CCRF-CEM leukemia = test system: CCRF-CEM leukemia
# U251 CNS = test system: U251 CNS
# NCI-H460 lung = test system: NCI-H460 lung
# KM12 colon = test system: KM12 colon
# SF-295 CNS = test system: SF-295 CNS
# CAKI-1 renal = test system: CAKI-1 renal
# A549 NSCLC = test system: A549 NSCLC
# LOX IMVI melanoma = test system: LOX IMVI melanoma
# MOLT-4 leukemia = test system: MOLT-4 leukemia
# OVCAR-3 ovarian = test system: OVCAR-3 ovarian
# HOP-92 NSCLC = test system: HOP-92 NSCLC
# DLD-1 colon = test system: DLD-1 colon
# HOP-18 NSCLC = test system: HOP-18 NSCLC
# SR leukemia = test system: SR leukemia
# HCT-116 colon = test system: HCT-116 colon
compound,measurement,setting,value
C#Cc1cc(CN(CC(=O)OC(C)(C)C)CC(=O)OC(C)(C)C)nc(CN(CC(=O)OC(C)(C)C)CC(=O)OC(C)(C)C)c1,TGI,NCI-H226 lung,7.34 µM
same,TGI,DMS 273 small cell lung,28.6 µM
same,TGI,A498 renal,76.1 µM
same,TGI,KM20L2 colon,69.7 µM
same,TGI,HL-60(TB) leukemia,9.72 µM
same,TGI,OVCAR-8 ovarian,31.6 µM
same,TGI,786-0 renal,47.8 µM
same,TGI,HCC-2998 colon,33.9 µM
same,TGI,OVCAR-5 ovarian,> 100 µM
same,TGI,HOP-62 NSCLC,24.1 µM
same,TGI,TK-10 renal,> 100 µM
same,TGI,SW-620 colon,21.1 µM
same,TGI,XF 498 CNS,36.6 µM
same,TGI,SNB-75 CNS,43.4 µM
same,TGI,SF-539 CNS,32.9 µM
same,TGI,UACC-257 melanoma,9.15 µM
same,TGI,SK-OV-3 ovarian,51 µM
same,TGI,SK-MEL-2 melanoma,8.24 µM
same,TGI,M19-MEL melanoma,83.2 µM
same,TGI,EKVX NSCLC,49.3 µM
same,TGI,NCI-H522 lung,4.22 µM
same,TGI,UACC-62 melanoma,36.5 µM
same,TGI,ACHN renal,77 µM
same,TGI,LXFL 529 NSCLC,11.4 µM
same,TGI,HT29 colon,> 100 µM
same,TGI,SNB-78 CNS,70.4 µM
same,TGI,RXF 393 renal,14.2 µM
same,TGI,DMS 114 small cell lung,11.5 µM
same,TGI,NCI-H23 lung,26.3 µM
same,TGI,RPMI-8226 leukemia,6.25 µM
same,TGI,SNB-19 CNS,15.1 µM
same,TGI,MALME-3M melanoma,20.9 µM
same,TGI,HCT-15 colon,> 100 µM
same,TGI,SF-268 CNS,44.8 µM
same,TGI,SK-MEL-5 melanoma,11.3 µM
same,TGI,M14 melanoma,28.6 µM
same,TGI,SK-MEL-28 melanoma,93.8 µM
same,TGI,UO-31 renal,26 µM
same,TGI,COLO 205 colon,24.9 µM
same,TGI,K-562 leukemia,26.6 µM
same,TGI,SN12C renal,> 100 µM
same,TGI,OVCAR-4 ovarian,37.9 µM
same,TGI,RXF-631 renal,38.7 µM
same,TGI,IGROV1 ovarian,26.7 µM
same,TGI,CCRF-CEM leukemia,7.93 µM
same,TGI,U251 CNS,27.8 µM
same,TGI,NCI-H460 lung,> 100 µM
same,TGI,KM12 colon,23 µM
same,TGI,SF-295 CNS,> 100 µM
same,TGI,CAKI-1 renal,33.1 µM
same,TGI,A549 NSCLC,89.4 µM
same,TGI,LOX IMVI melanoma,6.03 µM
same,TGI,MOLT-4 leukemia,6.33 µM
same,TGI,OVCAR-3 ovarian,> 100 µM
CCCCCCCCCCCCCCCCCC[N+](C)(C)Cc1ccc(C[N+](C)(C)CCCCCCCCCCCCCCCCCC)cc1,TGI,HOP-92 NSCLC,24.8 µM
same,TGI,NCI-H226 lung,41.5 µM
same,TGI,DMS 273 small cell lung,45.9 µM
same,TGI,A498 renal,91.7 µM
same,TGI,DLD-1 colon,57.3 µM
same,TGI,KM20L2 colon,92.7 µM
same,TGI,HOP-18 NSCLC,34.8 µM
same,TGI,OVCAR-8 ovarian,30.5 µM
same,TGI,SR leukemia,5.63 µM
same,TGI,786-0 renal,39.1 µM
same,TGI,HCC-2998 colon,93.7 µM
same,TGI,OVCAR-5 ovarian,96.7 µM
same,TGI,HOP-62 NSCLC,34.7 µM
same,TGI,TK-10 renal,28.6 µM
same,TGI,SW-620 colon,> 100 µM
same,TGI,SNB-75 CNS,26 µM
same,TGI,UACC-257 melanoma,34 µM
same,TGI,SK-OV-3 ovarian,69.6 µM
same,TGI,SK-MEL-2 melanoma,> 100 µM
same,TGI,M19-MEL melanoma,59.8 µM
same,TGI,EKVX NSCLC,43.1 µM
same,TGI,NCI-H522 lung,> 100 µM
same,TGI,UACC-62 melanoma,47.6 µM
same,TGI,ACHN renal,30.3 µM
same,TGI,LXFL 529 NSCLC,12.8 µM
same,TGI,HT29 colon,38.6 µM
same,TGI,SNB-78 CNS,47.1 µM
same,TGI,HCT-116 colon,32.5 µM
same,TGI,RXF 393 renal,6.67 µM
same,TGI,DMS 114 small cell lung,34.1 µM
same,TGI,NCI-H23 lung,18 µM
same,TGI,RPMI-8226 leukemia,48.7 µM
same,TGI,SNB-19 CNS,76.1 µM
same,TGI,MALME-3M melanoma,> 100 µM
same,TGI,HCT-15 colon,> 100 µM
same,TGI,SF-268 CNS,43.1 µM
same,TGI,SK-MEL-5 melanoma,66.6 µM
same,TGI,M14 melanoma,49 µM
same,TGI,SK-MEL-28 melanoma,35 µM
same,TGI,UO-31 renal,56.3 µM
same,TGI,COLO 205 colon,> 100 µM
same,TGI,K-562 leukemia,> 100 µM
same,TGI,SN12C renal,30.1 µM
same,TGI,OVCAR-4 ovarian,> 100 µM
same,TGI,RXF-631 renal,57.1 µM
same,TGI,IGROV1 ovarian,> 100 µM
same,TGI,CCRF-CEM leukemia,44.1 µM
same,TGI,U251 CNS,56.2 µM
same,TGI,NCI-H460 lung,> 100 µM
same,TGI,KM12 colon,39.4 µM
same,TGI,SF-295 CNS,24.2 µM
same,TGI,CAKI-1 renal,47.7 µM
same,TGI,A549 NSCLC,38.8 µM
same,TGI,LOX IMVI melanoma,32.3 µM
same,TGI,MOLT-4 leukemia,51.8 µM
same,TGI,OVCAR-3 ovarian,40.6 µM
Cc1ccc(SSCCCCCS(=O)O)cc1,TGI,A498 renal,52 µM
same,TGI,DLD-1 colon,> 100 µM
same,TGI,HL-60(TB) leukemia,55.8 µM
same,TGI,SR leukemia,28.9 µM
same,TGI,HCC-2998 colon,> 100 µM
same,TGI,OVCAR-5 ovarian,> 100 µM
same,TGI,HOP-62 NSCLC,56.4 µM
same,TGI,TK-10 renal,75.4 µM
same,TGI,XF 498 CNS,49.6 µM
same,TGI,SNB-75 CNS,63.1 µM
same,TGI,SF-539 CNS,30.3 µM
same,TGI,UACC-257 melanoma,> 100 µM
same,TGI,SK-OV-3 ovarian,> 100 µM
same,TGI,SK-MEL-2 melanoma,59.2 µM
same,TGI,M19-MEL melanoma,> 100 µM
same,TGI,EKVX NSCLC,> 100 µM
same,TGI,NCI-H522 lung,27.9 µM
same,TGI,UACC-62 melanoma,49.5 µM
same,TGI,ACHN renal,> 100 µM
same,TGI,LXFL 529 NSCLC,28.5 µM
same,TGI,HT29 colon,> 100 µM
same,TGI,SNB-78 CNS,82.1 µM
same,TGI,HCT-116 colon,28.4 µM
same,TGI,RXF 393 renal,43.3 µM
same,TGI,DMS 114 small cell lung,45.2 µM
same,TGI,NCI-H23 lung,88.9 µM
same,TGI,RPMI-8226 leukemia,71.4 µM
same,TGI,SNB-19 CNS,> 100 µM
same,TGI,MALME-3M melanoma,> 100 µM
same,TGI,SF-268 CNS,36.1 µM
same,TGI,M14 melanoma,> 100 µM
same,TGI,SK-MEL-28 melanoma,> 100 µM
same,TGI,UO-31 renal,67.2 µM
same,TGI,K-562 leukemia,> 100 µM
same,TGI,SN12C renal,49 µM
same,TGI,OVCAR-4 ovarian,> 100 µM
same,TGI,RXF-631 renal,> 100 µM
same,TGI,CCRF-CEM leukemia,> 100 µM
same,TGI,U251 CNS,25.7 µM
same,TGI,NCI-H460 lung,> 100 µM
same,TGI,KM12 colon,> 100 µM
same,TGI,LOX IMVI melanoma,30.9 µM
same,TGI,MOLT-4 leukemia,40.3 µM
same,TGI,OVCAR-3 ovarian,74.7 µM
